Measurements as given in BindingDB's records for doi:10.1016/j.bmcl.2003.11.074 (Kaohsiung Medical University, 2004).

What was measured:
[1] = Inhibitory effect of compound on the release of Beta-glucuronidase in rat neutrophils stimulated with fMLP/CB
Lysozyme C-1 = biological target: T1, Lysozyme C-1 (Rattus norvegicus, UniProt P00697); experiment: ChEBML_100187
T1 sequence (P00697 whole entry): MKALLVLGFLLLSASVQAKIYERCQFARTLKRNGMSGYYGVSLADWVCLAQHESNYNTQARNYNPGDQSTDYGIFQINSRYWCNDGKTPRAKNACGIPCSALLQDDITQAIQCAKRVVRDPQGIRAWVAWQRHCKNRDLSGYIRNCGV
Description: Inhibitory effect of compound on the release of lysozyme in rat neutrophils stimulated with fMLP/CB

Row | Structure (SMILES) | IC50 [1] [µM] | IC50 (Lysozyme C-1) [µM]
1 | O=c1c(O)c(-c2ccc(O)cc2)oc2cc(OC3O[C@H](CO)[C@@H](O)[C@H](O)[C@H]3O)cc(O)c12 (stereo not given in full) | > 30 | > 30
2 | CN1CCN(CCCN2c3ccccc3Sc3ccc(C(F)(F)F)cc32)CC1 | – | 9
3 | C[C@](O)(CO)c1cc2c3c(ccc2o1)[C@@H]1COc2cc(O)ccc2[C@@H]1O3 [2-((11bR,12R)-9-Hydroxy-5b,11b-dihydro-6H-3,7,12-trioxa-benzo[a]cyclopenta[i]fluoren-2-yl)-propane-1,2-diol] | > 30 | > 30
4 | O=c1c(-c2ccc(O)cc2O)coc2cc(O)cc(O)c12 [3-(2,4-Dihydroxy-phenyl)-5,7-dihydroxy-chromen-4-one] | – | 9.7
5 | COc1cc(O)ccc1-c1coc2cc(O)cc(O)c2c1=O [5,7-Dihydroxy-3-(4-hydroxy-2-methoxy-phenyl)-chromen-4-one] | > 30 | > 30
6 | O=c1cc(-c2ccc(O)cc2)oc2cc(O)ccc12 [7-hydroxy-2-(4-hydroxyphenyl)-4H-chromen-4-one] | – | > 30
7 | O=c1cc(-c2ccc(O)cc2)oc2cc(O)cc(O)c12 [Naringenin, 18] | – | 17.7
